# Laboratory results published in patent US4647457A, “Penicillanic acid derivatives” (Hoffmann-La Roche Inc., priority 1983, dated 1987).
# Where two headings read alike, the source gives them in different places.
# Assays:
# [1] = target: β-lactamase from Proteus vulgaris 1028; assay: β-lactamase inhibition, nitrocefin cleavage, isolated enzyme from P. vulgaris 1028; format: biochemical; settings: 15 min pre-incubation, nitrocefin substrate, 37° C., pH 7.0
# Description: (§1) Various β-lactamases can be isolated from penicillin-resistant or cephalosphorin-resistant strains of bacteria such as Klebsiella pneumoniae NCTC 418, Proteus vulgaris 1028 and E. coli RTEM. For this purpose, the corresponding strains are cultivated in Tryptic Soy Broth (Difco) and harvested by centrifugation in the late logarithmic growth phase (when required 50-100 mg/l of ampicillin are added to the medium towards the end of the log-phase in order to induce the β-lactamase). The thus-obtained bacteria mass is treated with 10 mM of phosphate buffer (pH 7.0); the cells are broken open with ultrasound (Biosonic III, Bronwill; 3-5 min. impulse) while cooling. The mixture is centrifuged (20,000 r/min.) for 20-30 minutes and there is obtained a clear crude extract which can be used as the enzyme source (β-lactamase source) and which can be frozen at -20° C. for several months without loss of activity.
# (§2) The determination of the activity of the isolated β-lactamases can be carried out according to the method of O'Callaghan, C. H. et al. [Antimicr. Ag. Chemother. 1, 283-288 (1972)] with the chromogenic cephalosporin nitrocefin (Glaxo). The required experimental batch contains per ml of water: 50 mM of phosphate buffer (pH 7.0), 0.1 mM of nitrocefin and sufficient enzyme (β-lactamase) in order to attain a ΔA/min. of about 0.1. The cleavage of the substrate, which is associated with a colour change, is carried out at 37° C. and is followed quantitatively at 482 nm with a spectral photometer.
# (§3) The above-described cleavage of the chromogenic substrate by β-lactamases (experiment B) can be inhibited by adding compounds of formula I (inhibitors). Since it has been shown that the inhibitors irreversibly inactivate the β-lactamase in a time-dependent reaction, the reaction (cleavage of the substrate) is started by adding the substrate, in each case after a pre-incubation period of β-lactamase with inhibitor of 15 minutes. The determination of the β-lactamase-inhibiting activity of compounds of formula I in which R^1 signifies a group readily cleavable by hydrolysis is carried out in each case in the presence or absence of an esterase. As a measurement for the affinity of the respective tested inhibitor to the β-lactamase, which represents a measurement of the strength of the inhibitor, there serves that concentration which inhibits to 50% (IC 50 in μM/l) the cleavage of the substrate (nitrocefin) carried out under the above experimental conditions (experiment B) in the absence of an inhibitor. 4 to 6 experiments with differing concentrations of inhibitor were carried out in order to determine the IC 50. The determination of the IC 50 was carried out graphically.
# [2] = target: T1, β-lactamase from E. coli RTEM (Escherichia coli, UniProt P62593); assay: β-lactamase inhibition, nitrocefin cleavage, isolated enzyme from E. coli RTEM; format: biochemical; settings: 15 min pre-incubation, nitrocefin substrate, 37° C., pH 7.0
# T1 construct: there is obtained a clear crude extract which can be used as the enzyme source; endogenous in cells; host or cells: E. coli RTEM, sonicated cells, clear crude extract
# T1 sequence (P62593 24-286 limits assumed): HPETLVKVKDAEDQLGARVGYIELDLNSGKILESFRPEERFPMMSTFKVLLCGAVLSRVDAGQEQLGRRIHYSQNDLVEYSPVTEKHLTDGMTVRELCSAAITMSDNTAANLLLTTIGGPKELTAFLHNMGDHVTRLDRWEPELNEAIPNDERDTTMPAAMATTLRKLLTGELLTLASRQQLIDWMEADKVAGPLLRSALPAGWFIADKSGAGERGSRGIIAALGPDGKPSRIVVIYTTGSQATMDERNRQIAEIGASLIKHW
# Description: as §1, §2, §3
# [3] = in the absence of an esterase, read-out: β-Lactamase inhibition IC50, P. vulgaris 1028, -E
# [4] = in the presence of an esterase, read-out: β-Lactamase inhibition IC50, P. vulgaris 1028, +E
Structure (SMILES),"IC50 [1, 3] [nM]","IC50 [1, 4] [nM]",IC50 ([2]; in the absence of an esterase) [nM],IC50 ([2]; in the presence of an esterase) [nM]
"CC(C=C1C(=O)N2[C@@H]1SC(C)(C)[C@@H]2C(=O)OCOC(=O)C(C)(C)C)=NO [Example 1, methylene-(2S,5R)-6-[2-(hydroxyimino)propylidene]pencillanate pivalate]",460,35,60,2
"CC(=O)C[C@]1(N2CCOCC2)C(=O)N2[C@@H](C(=O)OCOC(=O)C(C)(C)C)C(C)(C)S[C@@H]21 [Example 3, methylene-(2S,5R,6S)-6-acetonyl-6-morpholino-penicillanate pivalate]",4100,100,900,10
"CC(=O)C[C@]1(Sc2ccccc2)C(=O)N2[C@@H](C(=O)OCOC(=O)C(C)(C)C)C(C)(C)S[C@@H]21 [Example 4, methylene-(2S,5R,6S)-6-acetonyl-6-phenylthio-penicillanate pivalate]",3700,300,800,2
"CC(=O)C[C@@]1(SC(C)=O)C(=O)N2[C@@H](C(=O)OCOC(=O)C(C)(C)C)C(C)(C)S[C@@H]21 [Example 5, methylene-(2S,5R,6R)-6-acetonyl-6-acetylthio-penicillanate pivalate]",4200,200,700,10
